We go through one compound from article PMC7006784, “The combination of salvianolic acid A with latamoxef completely protects mice against lethal pneumonia caused by methicillin-resistant Staphylococcus aureus” (Emerging Microbes & Infections, 2020).

This assay relates to S. aureus. Put plainly: Anti-S. aureus activity (MIC by broth microdilution, growth curve). It is filed as cell-based. As for the experimental part:
The minimum inhibitory concentration (MIC) of Sal A was determined by broth microdilution according to the NCCLS guidelines. Briefly, overnight cultures of S. aureus were diluted 1:100 with fresh Brain Heart Infusion (BHI) medium supplemented with or without 256 μg/ml Sal A and grown at 37°C with shaking. Absorbance readings were obtained at OD600 at different time intervals.
Background: Broth dilution looks for growth in wells or tubes with falling amounts of substance.

Turning to `O=C(/C=C/c1ccc(O)c(O)c1/C=C/c1ccc(O)c(O)c1)O[C@H](Cc1ccc(O)c(O)c1)C(=O)O` [Sal A, (2R)-3-(3,4-Dihydroxyphenyl)-2-[(E)-3-[2-[(E)-2-(3,4-dihydroxyphenyl)ethenyl]-3,4-dihydroxyphenyl]prop-2-enoyl]oxypropanoic acid], the “growth of S. aureus” value (40-fold the IC50 (up to 200 μM), growth curve with 256 μg/ml) is on record as “did not inhibit the growth”. The compound further came in with an MIC (Staphylococcus aureus, broth microdilution) of over 1020 µg/mL.

By MIC is commonly meant the lowest concentration found to suppress growth.
